Reference: the RepoRT retention time repository (doi:10.1021/acs.analchem.2c02893)

Assay: RP, Thermo Scientific Acclaim RSLC 120 C18, 100 × 2.1 mm, 2.2 µm, 30 °C, 0.2 mL/min, estimated dead time 1.1 min; A: 90% water + 10% methanol + 0.01% formic acid + 5 mM ammonium formate, pH 3.61; B: methanol + 0.01% formic acid + 5 mM ammonium formate, pH 3.61; gradient (min/%B) 0/1 1/1 2/39 13/99.9 15/99.9 15.1/1 20.1/1
Conditions: stereoisomer not certain

SMILES | LC retention time [min]
Clc1ccccc1-c1nnc(-c2ccccc2Cl)nn1 [Clofentezine] | 11.5
NC1=NCCN1Cc1ccc(Cl)nc1 [Imidacloprid-guanidine] | 11
CNc1cnn(-c2cccc(C(F)(F)F)c2)c(=O)c1Cl [Norflurazon] | 8.51
Cc1cc(Cl)ccc1N=CN(C)C [Chlordimeform] | 4.64
CCN(CC)C(=O)C(C)Oc1cccc2ccccc12 (configuration not stated) [Napropamide] | 10.2
CCC(C)C1OC2(C=CC1C)CC1CC(CC=C(C)C(OC3CC(OC)C(OC4CC(OC)C(O)C(C)O4)C(C)O3)C(C)C=CC=C3COC4C(O)C(C)=CC(C(=O)O1)C34O)O2 (configuration not stated) [AvermectinB1a (Abamectin)] | 13.6
CC(C1CC1)C(O)(Cn1cncn1)c1ccc(Cl)cc1 (configuration not stated) [Cyproconazole] | 9.89
CNC(C)C(=O)c1ccc(C)cc1 (configuration not stated) [Mephedrone] | 4.49
NCC1(CC(=O)O)CCCCC1 [Gabapentin] | 3.78
O=C(Oc1cccc2cccnc12)c1cn(CC2CCCCC2)c2ccccc12 [BB-22] | 12.4
CCCCCn1cc(C(=O)c2cccc3ccccc23)c2cccc(O)c21 [JWH-018-M-7-OH-Ind] | 11.8
CNP(=O)(OC)Oc1ccc(C(C)(C)C)cc1Cl (configuration not stated) [Crufomate] | 10.5
CNC(=O)ON=CC(C)(C)S(C)=O (configuration not stated) [Aldicarb-sulfoxide] | 3.5
CCC(NC)C(=O)c1ccc(C)cc1 (configuration not stated) [Buphedrone-4-Methyl] | 5.04
N#CCNC(=O)c1cnccc1C(F)(F)F [Flonicamid] | 4.22
COc1ccc(CC(C)N)c(OC)c1OC (configuration not stated) [TMA] | 4.16
Clc1ccc2c(c1)CCc1cccnc1C2=C1CCNCC1 [Desloratadine] | 7.48
CCCCOC(=O)N(C)SN(C)C(=O)Oc1cccc2c1OC(C)(C)C2 [Furathiocarb] | 12.1
CCCCCCCCCCCCN=C(N)N [Dodine (Ion1+)] | 11.2
Nc1ccc(N=Nc2ccccc2)c(N)n1 [Phenazopyridine] | 8.49

SMILES | LC retention time [min]
Clc1ccccc1C(c1ccccc1)(c1ccccc1)n1ccnc1 [Clotrimazole] | 11.2
COc1cc(OC)nc(Oc2cccc(Oc3nc(OC)cc(OC)n3)c2C(=O)O)n1 [Bispyribac] | 8.86
CCCCn1c(O)c(C(=O)c2cccc3ccccc23)c2ccccc21 [JWH-073-M-2-OH-Ind] | 13.5
CC(C)C(O)(C(=O)OCC1=CCN2CCC(O)C12)C(C)O (configuration not stated) [Lycopsamine] | 3.65
O=C(Nc1ccc(F)cc1)c1cccc(Oc2cccc(C(F)(F)F)c2)n1 [Picolinafen] | 12.3
Cc1nnc2n1-c1ccc(Cl)cc1C(c1ccccc1Cl)=NC2 [Triazolam] | 8.05
Cn1cc(-c2ccccc2)c(=O)c(-c2cccc(C(F)(F)F)c2)c1 [Fluridone] | 8.82
COc1cc(CCN)c(OC)cc1Cl [2C-C] | 5.28
CC(C)C(C(=O)OC(C#N)c1cccc(Oc2ccccc2)c1)c1ccc(OC(F)F)cc1 (configuration not stated) [Flucythrinate] | 12.7
COc1cc(SC(C)C)c(OC)cc1CCN [2C-T-4] | 6.69
CP(=O)(O)CCC(N)C(=O)O (configuration not stated) [Glufosinate] | 1.44
Nc1cnn(-c2ccccc2)c(=O)c1Cl [Chloridazone] | 5.34
CCC(CO)NC(=O)C1C=C2c3cccc4[nH]cc(c34)CC2N(C)C1 (configuration not stated) [Ergometrine-Methyl] | 4.34
CC(C)Oc1cc(-n2nc(C(C)(C)C)oc2=O)c(Cl)cc1Cl [Oxadiazon] | 12.3
CNC(C)Cc1ccc(F)cc1 (configuration not stated) [Amphetamine-4-F-Methyl (4-F-methamphetamine)] | 4.43
O=C(O)c1c(Cl)ccc2cc(Cl)cnc12 [Quinclorac] | 4.9
CC(N)Cc1ccc(O)cc1 (configuration not stated) [Amphetamine-P-hydroxy] | 2.98
COc1cccc(C(=O)CCNC(C)C(O)c2ccccc2)c1 (configuration not stated) [Oxyfedrine] | 6.14
Nc1c(Cl)c(Cl)nc(C(=O)O)c1Cl [Picloram] | 3.56
O=S(=O)(c1ccc(O)cc1)c1ccc(O)cc1 [Bisphenol S] | 5.35

Now from value to molecule:

LC retention time [min] | SMILES
9.2 | O=C(O)COC(=O)Cc1ccccc1Nc1c(Cl)cccc1Cl [Aceclofenac]
11.3 | Cc1ccc(Cl)c(Nc2ccccc2C(=O)O)c1Cl [Meclofenamic acid]
8.73 | CC1(C)OC2CC3C4CC(F)C5=CC(=O)C=CC5(C)C4(F)C(O)CC3(C)C2(C(=O)CO)O1 (configuration not stated) [Fluocinolone acetonide]
9.32 | O=C(C1CCCCC1)N1CC(=O)N2CCc3ccccc3C2C1 (configuration not stated) [Praziquantel]
10.7 | CC(=O)C1(O)CCC2C3CC(C)C4=CC(=O)CCC4(C)C3CCC21C (configuration not stated) [Medroxyprogesterone]
8.45 | CCOC(=O)C1CC(=O)C(=C(O)C2CC2)C(=O)C1 (configuration not stated) [Trinexapac-ethyl]
11.7 | CCCCCCCCCCCC(=O)N(CCO)CCO [Lauryl diethanolamide]
1.67 | CC1(C)CC(N)CC(C)(CN)C1 (configuration not stated) [Isophorone diamine]
10.1 | OC1(c2ccc(Cl)c(C(F)(F)F)c2)CCN(CCCC(c2ccc(F)cc2)c2ccc(F)cc2)CC1 [Penfluridol]
8.43 | COc1ccc(Oc2ccc(NC(=O)N(C)C)cc2)cc1 [Difenoxuron]
9.08 | CC(CN1CCN(CCOCCO)CC1)CN1c2ccccc2Sc2ccccc21 (configuration not stated) [Dixyrazine]
5.81 | COc1cc2c(cc1OC)C(=O)C(CC1CCN(Cc3ccccc3)CC1)C2 (configuration not stated) [Donepezil]
12.9 | CC(C)c1cc(Oc2ccccc2)cc(C(C)C)c1NC(=S)NC(C)(C)C [Diafenthiuron]
4.11 | CC(=O)Nc1ccc(S(=O)(=O)Nc2ncccn2)cc1 [Sulfadiazine-N4-Acetyl]
11 | CCCCC(=O)OC1(C(=O)CO)C(C)CC2C3CCC4=CC(=O)C=CC4(C)C3(F)C(O)CC21C (configuration not stated) [Betamethasone-17-valerate]
2.8 | C=CC(=O)NC(C)(C)CS(=O)(=O)O [2-Acrylamido-2-methylpropane sulfonic acid (AMPS)]
9.18 | CCC1OC(=O)C(C)C(OC2CC(C)(OC)C(O)C(C)O2)C(C)C(OC2OC(C)CC(N(C)C)C2O)C(C)(OC)CC(C)C(=O)C(C)C(O)C1(C)O (configuration not stated) [Clarithromycin]
10.8 | CC1(C)OC2CC3C4CCC5=CC(=O)CCC5(C)C4(F)C(O)CC3(C)C2(C(=O)CCl)O1 (configuration not stated) [Halcinonide]
8.38 | CN1CCN(CCC=C2c3ccccc3Sc3ccc(S(=O)(=O)N(C)C)cc32)CC1 [Thiothixene]
3.96 | Cc1c(NC=O)c(=O)n(-c2ccccc2)n1C [Antipyrine- 4-Formylamino]
4.79 | COc1ccc(CC(C)NCC(O)c2ccc(O)c(NC=O)c2)cc1 (configuration not stated) [Formoterol]

LC retention time [min] | SMILES
11.3 | CCN(CC)C(=O)SCc1ccccc1Cl [Orbencarb]
4.66 | CC(C)(C)NCC(O)COc1ccccc1C#N (configuration not stated) [Bunitrolol]
8.8 | CC(=O)OCC(=O)C1(O)CCC2C3CCC4=CC(=O)CCC4(C)C3C(O)CC21C (configuration not stated) [Hydrocortisone 21-acetate]
11.5 | COC(=O)C(C)Oc1cc(Cl)c(Cl)cc1Cl (configuration not stated) [Fenoprop-methylester  (Silvex-methyester)]
6.71 | C=CCc1ccccc1OCC(O)CNC(C)C (configuration not stated) [Alprenolol]
8.28 | OC(CNCC(O)C1CCc2cc(F)ccc2O1)C1CCc2cc(F)ccc2O1 (configuration not stated) [Nebivolol]
13.6 | CC1(C)C(C(=O)OC(C#N)c2cccc(Oc3ccccc3)c2)C1C(Br)C(Br)(Br)Br (configuration not stated) [Tralomethrin]
4.73 | CS(=O)(=O)c1ccc(C(O)C(CF)NC(=O)C(Cl)Cl)cc1 (configuration not stated) [Florfenicol]
14.5 | CC(C)([CH2][Sn+]([CH2]C(C)(C)c1ccccc1)[CH2]C(C)(C)c1ccccc1)c1ccccc1 [Fenbutatin Oxide Fragm 519]
4.18 | CN1CCN(c2c(F)cc3c(=O)c(C(=O)O)cn4c3c2OCN4C)CC1 [Marbofloxacin]
9.52 | CC(C)(c1ccc(OCC(O)CO)cc1)c1ccc(OCC2CO2)cc1 (configuration not stated) [Bisphenol<U+00A0>A (2,3-dihydroxypropyl) glycidyl ether]
9.99 | O=c1[nH]c2ccccc2n1CCN1CCN(c2cccc(C(F)(F)F)c2)CC1 [Flibanserin]
9.77 | CC12CCC(=O)C=C1C=CC1C2CCC2(C)C1CCC21CCC(=O)O1 (configuration not stated) [Canrenone]
6.32 | CN(C)CCN1C(=O)c2ccccc2Nc2cc(Cl)ccc21 [Clobenzepam]
10.9 | CN(C(=O)CN(CCO)CC(=O)N(C)C(C)(C)Cc1ccccc1)C(C)(C)Cc1ccccc1 [Oxetacaine]
4.18 | COc1cnc(NS(=O)(=O)c2ccc(N)cc2)nc1 [Sulfameter (sulfumetin)]
8.03 | O=C1Cc2cc(CCN3CCN(c4nsc5ccccc45)CC3)c(Cl)cc2N1 [Ziprasidone]
6.07 | CCC(CN(C)C)(CN(C)C)OC(=O)c1ccccc1 [Alypin]
6.91 | COc1ccccc1OCCNCC(O)COc1cccc2[nH]c3ccccc3c12 (configuration not stated) [Carvedilol]
9.34 | CSc1ccc2c(c1)N(CCC1CCCCN1C)c1ccccc1S2 (configuration not stated) [Thioridazine]
13.4 | Clc1ccc(C(Cn2ccnc2)OCc2ccc(Sc3ccccc3)cc2)c(Cl)c1 (configuration not stated) [Fenticonazole]
